Source: US20260008760A1, “DIPEPTIDYL PEPTIDASE 1 INHIBITORS AND USES THEREOF” (Insmed Incorporated, priority 2024, published 2026)

Columns and labels:
human DPP1 enzyme = human DPP1 enzyme (Homo sapiens, UniProt P53634); experiment: Human DPP1 Enzyme Single-Point Percent Inhibition Testing (HL-60 lysate); assay type: biochemical; design: A crude lysate of HL-60 cells (ATCC; Manassas, VA) was used as a source of human DPP1 enzyme; host or cells: HL-60 cells (crude lysate); details: final compound concentration of 10 nM, 400 μM H-Gly-Arg-AMC, n = 1
Chain of human DPP1 enzyme (P53634 25-463): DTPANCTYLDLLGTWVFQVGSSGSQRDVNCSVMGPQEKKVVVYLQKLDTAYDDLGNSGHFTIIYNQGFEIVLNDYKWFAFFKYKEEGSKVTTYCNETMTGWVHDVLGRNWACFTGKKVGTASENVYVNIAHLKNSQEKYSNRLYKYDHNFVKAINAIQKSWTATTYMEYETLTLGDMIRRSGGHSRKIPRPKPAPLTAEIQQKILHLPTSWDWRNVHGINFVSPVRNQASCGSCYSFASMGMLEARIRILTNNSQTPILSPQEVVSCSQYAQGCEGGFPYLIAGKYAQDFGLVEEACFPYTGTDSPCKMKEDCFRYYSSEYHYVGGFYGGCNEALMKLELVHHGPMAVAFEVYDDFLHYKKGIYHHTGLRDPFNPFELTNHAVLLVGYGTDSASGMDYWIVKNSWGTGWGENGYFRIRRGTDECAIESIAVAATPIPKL
Method: Example 98. Human DPP1 Enzyme Single-Point Percent Inhibition Testing
A crude lysate of HL-60 cells (ATCC; Manassas, VA) was used as a source of human DPP1 enzyme in the assay. Lysate was prepared in 1% Triton X-100 in PBS at a concentration of 20,000 live cells per μL of lysis buffer and was centrifuged at 16,000 rcf for 10 minutes at 4° C., after which supernatant was collected and flash-frozen in liquid nitrogen. Test articles were applied to human DPP1 enzyme in Assay Buffer (25 mM MES pH 6.0, 50 mM NaCl, 5 mM DTT) in a total reaction volume of 125 μL. 25 μL of compound diluted to 50 nM in Assay Buffer plus 5% DMSO was first added to 50 μL of HL-60 lysate diluted to contain a DPP1 enzyme concentration of roughly 1 ng/μL and allowed to pre-incubate for 10 minutes at 37° C. after which 50 μL of 1000 μM H-Gly-Arg-AMC substrate (Bachem; St. Torrance, CA) was added, giving final compound concentration of 10 nM, a final substrate concentration of 400 μM and a final DMSO concentration of 1%. Substrate cleavage was measured for 90 minutes at 37° C., with fluorescence at Excitation/Emission 350/450 nm measured every 5 minutes. DPP1 concentration was interpolated based on its activity relative to a standard curve of activated human recombinant DPP1 enzyme. Percent inhibition at 10 nM was calculated for each test article based on remaining DPP1 activity compared to enzyme activity in wells that received only vehicle control.

DPP1 in HL-60 cells = DPP1 in HL-60 cells (Homo sapiens, UniProt P53634); experiment: DPP1 Cell Single-Point Percent Inhibition Testing; assay type: cell-based; design: host or cells: HL-60 cells; details: final compound concentration 5 nM, n = 1
Chain of DPP1 in HL-60 cells (P53634 25-463): as above
Method: Example 100. DPP1 Cell Single-Point Percent Inhibition Testing
HL-60 cells (ATCC; Manassas, VA) were maintained in RPMI-1640 supplemented with 20% heat-inactivated FBS and 1× Antibiotic Antimycotic (Cytiva; Marlborough, MA). Media was changed every three to four days and cells were not allowed to exceed 1×10^6 cells per mL. Prior to assay, cells were collected by centrifugation at 500 rcf for 3 minutes, resuspended in RPMI (with no additional supplements) and counted. Cells were diluted in RPMI to a concentration of 5×10^5 live cells per mL and transferred to black 96-well plates for assay, 60 μL per well. Test articles were diluted to 25 nM in RPMI plus 0.5% DMSO, and 20 μL was added to each assay well. Compound was allowed to pre-incubate with cells with gentle shaking at 100 rpm for 60 minutes at 37° C. in a cell culture incubator maintained at 5% CO2, after which 20 μL of 500 μM H-Gly-Phe-AFC cell-permeable substrate (MP Biomedicals; Solon, OH) in RPMI was added to each well, giving final compound concentration of 5 nM, a final substrate concentration of 100 μM and a final DMSO concentration of 0.1%. Plates were returned to the incubator with shaking at 100 rpm for 30 minutes, after which fluorescence was measured at Excitation/Emission 400/505 nm. Percent Inhibition was calculated from RFU values by first subtracting background values (wells in which RPMI was substituted for cells) from each well, and then subtracting background-subtracted RFU derived from wells that received a final concentration of 10 μM brensocatib. This value represents the non-specific substrate cleavage from the HL-60 cells, and the remaining RFU should theoretically be solely the contribution of DPP1 enzyme activity. The final percent inhibition value was calculated for each test article based on remaining RFU compared to RFU from wells that received only vehicle control.

Structure (SMILES) | inhibition at 0.01 µM (human DPP1 enzyme) [%] | inhibition at 0.005 µM (DPP1 in HL-60 cells) [%]
CN1CCCC2(C1)C(=O)N(C)c1ccc(-c3ccc(C[C@@H](C#N)NC(=O)[C@@H]4CNCCCCO4)cc3)cc12 (stereo partly drawn) [Compound 36] | ≤ 40 | ≤ 76.5
COC1CNC[C@@H](C(=O)N[C@H](C#N)Cc2ccc(-c3ccn4ccnc4c3)cc2)OC1 (stereo partly drawn) [Compound H40] | 40 to 66.7 | ≤ 76.5
CO[C@@H]1CCNC[C@@H](C(=O)N[C@H](C#N)Cc2ccc(-c3cc4c(C)nc(C)c(C)n4c3)cc2)OC1 [Compound A123] | ≥ 66.7 | ≥ 93.9
CO[C@@H]1CCNC[C@@H](C(=O)N[C@H](C#N)Cc2ccc(-c3ccc4cnn(C5CCN(C)CC5)c4c3)cc2)OC1 [Compound H3] | ≥ 66.7 | ≤ 76.5
CO[C@H]1CCO[C@H](C(=O)N[C@H](C#N)Cc2ccc(-c3ccc4c(c3)C3(CCCN(C)C3)C(=O)N4C)cc2)CNC1 (stereo partly drawn) [Compound F19] | 40 to 66.7 | ≤ 76.5
COC1CNC[C@@H](C(=O)N[C@H](C#N)Cc2ccc(-c3cc4c(C)nc(C)cn4c3)cc2)OC1 (stereo partly drawn) [Compound A86] | 40 to 66.7 | ≤ 76.5
CO[C@H]1CCO[C@H](C(=O)N[C@H](C#N)Cc2ccc(-c3ccc(CN4CCN(C)CC4)cc3)cc2)CNC1 [Compound F23] | ≤ 40 | ≤ 76.5

Other lines, results leading:

inhibition at 0.01 µM (human DPP1 enzyme) [%] | inhibition at 0.005 µM (DPP1 in HL-60 cells) [%] | Structure (SMILES)
≥ 66.7 | ≤ 76.5 | CO[C@H]1CCO[C@H](C(=O)N[C@H](C#N)Cc2ccc(-c3ccc4c(c3)C3(CN(C)C3)OC4=O)cc2F)CNC1 [Compound F26]
≥ 66.7 | ≥ 93.9 | CCN1C(=O)Cc2ccc(-c3ccc(C[C@@H](C#N)NC(=O)[C@@H]4CNCC(OC)CO4)c(F)c3)cc21 (stereo partly drawn) [Compound G4]
≥ 66.7 | ≤ 76.5 | CO[C@@H]1CCNC[C@@H](C(=O)N[C@H](C#N)Cc2ccc(-c3ccc(CN4CCN(C)CC4)cc3)cc2F)OC1 [Compound F15]
40 to 66.7 | ≤ 76.5 | CO[C@H]1CCO[C@H](C(=O)N[C@H](C#N)Cc2cc3c(cc2F)-c2ccc(C#N)cc2CO3)CNC1 [Compound B24]
≥ 66.7 | ≤ 76.5 | CO[C@@H]1CCNC[C@@H](C(=O)N[C@H](C#N)Cc2ccc(-c3ccc4c(c3)C3(CCN(C)C3)OC4=O)cc2F)OC1 (stereo partly drawn) [Compound F14]
≤ 40 | ≤ 76.5 | CO[C@H]1CCO[C@H](C(=O)N[C@H](C#N)Cc2ccc(-c3cc4c(C)nc(C)cn4c3)cc2F)CNC1 [Compound A94]
≥ 66.7 | ≤ 76.5 | C[C@@H]1NC[C@@H](C(=O)N[C@H](C#N)Cc2ccc(-c3ccn4ccnc4c3)cc2)OC[C@H]1O [Compound H42]
≥ 66.7 | 76.5 to 93.9 | Cc1nc(C)c2cc(-c3ccc(C[C@@H](C#N)NC(=O)[C@@H]4CN[C@@H](C)[C@H](O)CO4)cc3)cn2c1C [Compound A132]
≥ 66.7 | ≤ 76.5 | Cc1cn2cc(-c3ccc(C[C@@H](C#N)NC(=O)[C@@H]4CN[C@@H](C)[C@H](O)CO4)cc3)cc2c(C)n1 [Compound A98]
≥ 66.7 | ≤ 76.5 | C[C@@H]1NC[C@@H](C(=O)NC(C#N)Cc2cc3c(cc2F)-c2ccc4oc(=O)n(C)c4c2CO3)OC[C@H]1O (stereo partly drawn) [Compound C20]
40 to 66.7 | ≤ 76.5 | C[C@@H]1NC[C@@H](C(=O)N[C@H](C#N)Cc2ccc(-c3ccc4nnn(C)c4c3)cc2F)OC[C@@H]1O [Compound H32]
